# Measurements published in ChEMBL document CHEMBL1201862, “PubChem BioAssay data set” (2004).
#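 Briefly, cells in 96-well plates were exposed to five compound concentrations for 48 h, and endpoints were estimated by linear interpolation. At the GI50, growth is halved.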 Calls of active or inactive are those of the source. Cut-off read from the data, not from the text of the source: active = GI50 up to about 1.1 µM and inactive = higher.
# What was measured:
# Experiment in all cases: inhibition of tumour cell growth, NCI panel, 48 h
# T47D = test system: T47D
# PC-3 = test system: PC-3
# RXF 393 = test system: RXF 393
# EKVX = test system: EKVX
# ACHN = test system: ACHN
# MDA-MB-435 = test system: MDA-MB-435
# A498 = test system: A498
# UO-31 = test system: UO-31
# NCI-H23 = test system: NCI-H23
# Hs-578T = test system: Hs-578T
# SK-MEL-28 = test system: SK-MEL-28
# NCI-H522 = test system: NCI-H522
# U-251 = test system: U-251
# Malme-3M = test system: Malme-3M
# MOLT-4 = test system: MOLT-4
# OVCAR-5 = test system: OVCAR-5
# SR = test system: SR
# OVCAR-3 = test system: OVCAR-3
# MCF7 = test system: MCF7
# 786-0 = test system: 786-0
Compound,GI50 (T47D),GI50 (PC-3),GI50 (RXF 393),GI50 (EKVX),GI50 (ACHN),GI50 (MDA-MB-435),GI50 (A498),GI50 (UO-31),GI50 (NCI-H23),GI50 (Hs-578T),GI50 (SK-MEL-28),GI50 (NCI-H522),GI50 (U-251),GI50 (Malme-3M),GI50 (MOLT-4),GI50 (OVCAR-5),GI50 (SR),GI50 (OVCAR-3),GI50 (MCF7),GI50 (786-0)
Cc1cc(C)n(CN(CCCCO)Cn2nc(C)cc2C)n1,25.6 µM (inactive),20.2 µM (inactive),18.8 µM (inactive),35.3 µM (inactive),17.5 µM (inactive),19.4 µM (inactive),> 100 µM (inactive),27.7 µM (inactive),24.3 µM (inactive),> 100 µM (inactive),17.7 µM (inactive),23.8 µM (inactive),22.4 µM (inactive),22.9 µM (inactive),14.2 µM (inactive),23.2 µM (inactive),4.82 µM (inactive),27.9 µM (inactive),26.8 µM (inactive),14.8 µM (inactive)
Clc1cc(OCc2nn3c(Cc4ccccc4)nnc3s2)ccc1OCc1nn2c(Cc3ccccc3)nnc2s1,20.9 µM (inactive),48.4 µM (inactive),27.7 µM (inactive),17.1 µM (inactive),24.2 µM (inactive),51.6 µM (inactive),29.1 µM (inactive),39.4 µM (inactive),38.9 µM (inactive),48.9 µM (inactive),42.2 µM (inactive),50.1 µM (inactive),21.6 µM (inactive),37.5 µM (inactive),34.4 µM (inactive),51.5 µM (inactive),35 µM (inactive),29.9 µM (inactive),50.4 µM (inactive),19.5 µM (inactive)
O=c1ccc2c(Cl)cccc2o1,46.7 µM (inactive),> 100 µM (inactive),> 100 µM (inactive),58.3 µM (inactive),> 100 µM (inactive),> 100 µM (inactive),> 100 µM (inactive),> 100 µM (inactive),> 100 µM (inactive),75.5 µM (inactive),> 100 µM (inactive),> 100 µM (inactive),> 100 µM (inactive),> 100 µM (inactive),> 100 µM (inactive),> 100 µM (inactive),> 100 µM (inactive),> 100 µM (inactive),> 100 µM (inactive),> 10 µM (inactive)
COc1c(OC)c(OC)c2c(=O)cc(-c3ccc(OC(C)C)cc3)oc2c1OC,7.03 µM (inactive),18.8 µM (inactive),> 33.5 µM (inactive),26.4 µM (inactive),34.2 µM (inactive),26 µM (inactive),8.3 µM (inactive),18.2 µM (inactive),27.6 µM (inactive),23.1 µM (inactive),38.4 µM (inactive),20.9 µM (inactive),> 37.2 µM (inactive),29.4 µM (inactive),3.87 µM (inactive),18.8 µM (inactive),0.369 µM (active),17.9 µM (inactive),18.3 µM (inactive),> 34.1 µM (inactive)
N#Cc1c(N2CCCC2)nsc1NCc1ccccc1,74.6 µM (inactive),> 100 µM (inactive),15 µM (inactive),> 100 µM (inactive),91 µM (inactive),> 100 µM (inactive),> 100 µM (inactive),4.14 µM (inactive),> 100 µM (inactive),60.4 µM (inactive),> 100 µM (inactive),> 100 µM (inactive),> 100 µM (inactive),> 100 µM (inactive),> 100 µM (inactive),> 100 µM (inactive),> 100 µM (inactive),> 100 µM (inactive),> 100 µM (inactive),> 100 µM (inactive)
COc1ccccc1Cn1nc(OC)c2cc([N+](=O)[O-])ccc21,> 100 µM (inactive),> 100 µM (inactive),1.88 µM (inactive),35.6 µM (inactive),31 µM (inactive),> 71 µM (inactive),26.9 µM (inactive),> 35.1 µM (inactive),35.6 µM (inactive),3.61 µM (inactive),> 91 µM (inactive),17.9 µM (inactive),12 µM (inactive),> 87.5 µM (inactive),> 100 µM (inactive),> 100 µM (inactive),> 100 µM (inactive),> 100 µM (inactive),45.8 µM (inactive),11.6 µM (inactive)
CCOP(=O)(O)C(Nc1ccc(/N=N/c2ccccc2)cc1)c1cccc(C(Nc2ccc(/N=N/c3ccccc3)cc2)P(=O)(O)OCC)c1 (stereo not given),18.4 µM (inactive),23.9 µM (inactive),75.5 µM (inactive),57.4 µM (inactive),45.9 µM (inactive),58.7 µM (inactive),23 µM (inactive),30 µM (inactive),71.1 µM (inactive),38.7 µM (inactive),32.3 µM (inactive),20.8 µM (inactive),31.2 µM (inactive),> 100 µM (inactive),16.7 µM (inactive),40.6 µM (inactive),31.3 µM (inactive),55.3 µM (inactive),35.2 µM (inactive),60 µM (inactive)
CC(=O)c1cccc(Nc2c3ccccc3nc3occc23)c1,5.14 µM (inactive),13 µM (inactive),0.09 µM (active),25.6 µM (inactive),9.73 µM (inactive),1.07 µM (active),31.4 µM (inactive),12.5 µM (inactive),3.01 µM (inactive),5.15 µM (inactive),2.67 µM (inactive),1.54 µM (inactive),5.16 µM (inactive),4.9 µM (inactive),5.27 µM (inactive),37.2 µM (inactive),0.705 µM (active),1.82 µM (inactive),3.94 µM (inactive),4.08 µM (inactive)
[O-]c1c2cc(-[n+]3c(-c4ccccc4)cc(-c4ccccc4)cc3-c3ccccc3)cc1CO[C@@H](c1ccccc1)[C@H](c1ccccc1)OCCOCCO[C@@H](c1ccccc1)[C@H](c1ccccc1)OC2,0.0344 µM (active),0.039 µM (active),0.108 µM (active),0.109 µM (active),0.167 µM (active),0.049 µM (active),0.5 µM (active),0.379 µM (active),0.0574 µM (active),0.0652 µM (active),0.475 µM (active),0.0264 µM (active),0.0297 µM (active),0.0407 µM (active),0.0397 µM (active),0.453 µM (active),0.0309 µM (active),0.0324 µM (active),0.0382 µM (active),0.0448 µM (active)
O=C(c1cc2c(c3ccccc13)NC1(CCCCC1)N=C2C(F)(F)F)C(F)(F)F,2.93 µM (inactive),3.68 µM (inactive),3.66 µM (inactive),4.82 µM (inactive),3.63 µM (inactive),3.23 µM (inactive),7.83 µM (inactive),3.62 µM (inactive),3.83 µM (inactive),6.32 µM (inactive),9.1 µM (inactive),2.65 µM (inactive),3.78 µM (inactive),5.27 µM (inactive),3.29 µM (inactive),8.83 µM (inactive),3.6 µM (inactive),2.85 µM (inactive),3.63 µM (inactive),3.82 µM (inactive)
O=C(O)CCSC(=S)Nc1ccc([N+](=O)[O-])cc1,31.3 µM (inactive),48.2 µM (inactive),> 60.8 µM (inactive),> 51.4 µM (inactive),33.8 µM (inactive),24.4 µM (inactive),> 70.3 µM (inactive),> 63.1 µM (inactive),> 66.7 µM (inactive),> 100 µM (inactive),41.3 µM (inactive),> 46.5 µM (inactive),> 56.2 µM (inactive),38.2 µM (inactive),8.38 µM (inactive),> 100 µM (inactive),11.7 µM (inactive),45 µM (inactive),40.1 µM (inactive),> 100 µM (inactive)
